25 compounds from patent US20240327353A1 can be followed below.

The target in assay [1] is T1, 5-HT2BR (Homo sapiens, UniProt P41595). Briefly: Radioligand binding (competitive displacement and saturation), cell membranes.
Assay [2] concerns the target T2, 5-HT2AR (Homo sapiens, UniProt P28223).
T2 construct: host or cells: HEK293, transient
The description is as above. The conditions noted are these: for Ki: pKi 5-HT2AR. The procedure: (§1) Transfections were performed for 48 hours.

Assay [3] addresses T3, H1R (Homo sapiens, UniProt P35367).
T3 construct: host or cells: CHO, transient
The description is as above. The method, then: as §1

Assay [4] deals with T4, 5-HT2CR (Homo sapiens, UniProt P28335).
T4 sequence (P28335 33-458): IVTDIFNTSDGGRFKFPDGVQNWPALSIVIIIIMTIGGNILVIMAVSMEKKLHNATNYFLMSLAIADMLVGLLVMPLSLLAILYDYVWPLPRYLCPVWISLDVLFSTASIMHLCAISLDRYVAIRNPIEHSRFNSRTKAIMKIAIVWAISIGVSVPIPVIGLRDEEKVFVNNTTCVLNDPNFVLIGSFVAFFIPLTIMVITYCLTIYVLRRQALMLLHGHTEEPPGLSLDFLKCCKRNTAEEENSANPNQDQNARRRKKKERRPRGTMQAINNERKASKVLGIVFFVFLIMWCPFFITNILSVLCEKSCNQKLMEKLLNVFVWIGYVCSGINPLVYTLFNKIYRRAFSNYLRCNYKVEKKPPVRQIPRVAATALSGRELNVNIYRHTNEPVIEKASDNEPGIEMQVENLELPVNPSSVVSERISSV
Nature of the assay: biochemical.
Description: (§2) All cells were grown adherently in 10 cm plates in a humidified incubator kept at 37° C. and 5% carbon dioxide. […] Transient transfections were used to express 5-HT2A, 5-HT2C, α1A- or α1B-adrenergic receptors, whereas 5-HT7(a)Rs were stably expressed in HEK293 cells. H1Rs were transiently expressed, and D2Rs were stably expressed in CHO cells.
(§3) Transient transfections were performed on cells in the log growth phase (70-90% confluence). […] Each solution was mixed by inversion before combining, mixed by inversion again, and incubated at 37° C. for 30 minutes. Cells were then washed with 1 mL 1×PBS, followed by the gentle addition of 5 mL of transfection cocktail and 5 mL of cell culture medium with 5% (final) dialyzed FBS. Transfections were performed for 48 hours.
(§4) The affinity of ligands was determined via radioligand binding techniques using human recombinant receptors expressed in mammalian clonal cells.
(§5) Saturation binding experiments were performed on membranes expressing 5-HT2A, 5-HT2B, 5-HT2C, or H1Rs in triplicate across 8 concentrations. Competition binding assays were performed in at least triplicate with approximate Kd concentrations of radioligand. Total and nonspecific binding were determined in octet. […] Serial dilutions of unlabeled compound were made in assay buffer at 2.5× the final concentration using 10 mM DMSO stocks (final [DMSO]≤1%). Assays were terminated using rapid filtration via Whatman GF/B Fired Filters (Brandel Inc., Gaithersburg, MD) soaked in 0.3% (w/v) PEI, using an automated Tomtec Harvester 96 (Hamden, CT).
(§6) Filters were washed with 50 mM Tri-HCl (pH=7.4, 4° C.) before being oven dried and placed into scintillation vials containing 1 mL SX18-4 ScintiVerse^TM BD Cocktail (Fisher Chemical, Fair Lawn, NJ).
(§7) GraphPad Prism (La Jolla, CA) version 9.1.1 was used to analyze all experimental data in this work. To analyze data from saturation binding studies, the radioligand counts per minute (cpm) were normalized to fmol/mg protein bound and then fit the data to a ‘specific binding with hill slope’ model. For competitive radioligand displacement studies, a baseline correction was performed by subtracting the mean nonspecific binding value from the radioligand binding values with and without competitor to obtain specific binding values. Specific binding values were then normalized such that total binding in the absence of competitor represented 100% radioligand binding, and the radioactivity associated with each concentration of competitor was a percentage of total binding. The normalized data was then fit to the ‘one-site Fit Ki’ nonlinear regression model.

For assay [5], the target named is T1, 5-HT2BR. Briefly: biochemical.
Description: as §2, §3, §4, §5, §6, §7
Where [6] appears, read: displacement of [^3H]ketanserin, mean of n independent experiments, ± SD where n ≥ 5.
Setting [7] is: pKi H1R, displacement of [^3H]mepyramine, mean of n independent experiments, ± SD where n ≥ 5.

Molecules are shown by their SMILES. Read-outs that look alike come from different tables or passages of the source.

T2 sequence (P28223 whole entry): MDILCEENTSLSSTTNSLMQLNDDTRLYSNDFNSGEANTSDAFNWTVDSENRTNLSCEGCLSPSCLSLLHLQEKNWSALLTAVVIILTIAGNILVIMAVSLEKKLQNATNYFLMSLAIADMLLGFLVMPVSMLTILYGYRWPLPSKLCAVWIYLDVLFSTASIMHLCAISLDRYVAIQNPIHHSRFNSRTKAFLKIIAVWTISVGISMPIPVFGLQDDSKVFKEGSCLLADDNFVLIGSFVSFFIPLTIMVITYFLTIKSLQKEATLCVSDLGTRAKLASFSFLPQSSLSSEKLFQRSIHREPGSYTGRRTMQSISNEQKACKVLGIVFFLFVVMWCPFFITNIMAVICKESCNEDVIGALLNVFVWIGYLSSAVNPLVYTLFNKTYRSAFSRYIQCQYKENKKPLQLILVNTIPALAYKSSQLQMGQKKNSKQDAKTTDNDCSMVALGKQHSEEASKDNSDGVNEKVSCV
T3 sequence (P35367 whole entry): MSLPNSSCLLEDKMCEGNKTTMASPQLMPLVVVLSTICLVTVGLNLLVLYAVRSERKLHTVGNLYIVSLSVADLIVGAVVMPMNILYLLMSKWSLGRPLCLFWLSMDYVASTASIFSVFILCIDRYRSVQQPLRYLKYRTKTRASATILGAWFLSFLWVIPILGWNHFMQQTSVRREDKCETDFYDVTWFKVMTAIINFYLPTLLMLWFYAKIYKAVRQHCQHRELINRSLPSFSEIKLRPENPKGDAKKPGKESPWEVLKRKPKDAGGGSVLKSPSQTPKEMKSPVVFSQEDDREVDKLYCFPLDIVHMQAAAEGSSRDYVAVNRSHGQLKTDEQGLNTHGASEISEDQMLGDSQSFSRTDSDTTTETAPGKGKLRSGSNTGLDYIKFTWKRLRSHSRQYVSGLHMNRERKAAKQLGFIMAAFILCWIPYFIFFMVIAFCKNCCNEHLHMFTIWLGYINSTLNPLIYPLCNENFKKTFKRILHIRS
T1 sequence (P41595 whole entry): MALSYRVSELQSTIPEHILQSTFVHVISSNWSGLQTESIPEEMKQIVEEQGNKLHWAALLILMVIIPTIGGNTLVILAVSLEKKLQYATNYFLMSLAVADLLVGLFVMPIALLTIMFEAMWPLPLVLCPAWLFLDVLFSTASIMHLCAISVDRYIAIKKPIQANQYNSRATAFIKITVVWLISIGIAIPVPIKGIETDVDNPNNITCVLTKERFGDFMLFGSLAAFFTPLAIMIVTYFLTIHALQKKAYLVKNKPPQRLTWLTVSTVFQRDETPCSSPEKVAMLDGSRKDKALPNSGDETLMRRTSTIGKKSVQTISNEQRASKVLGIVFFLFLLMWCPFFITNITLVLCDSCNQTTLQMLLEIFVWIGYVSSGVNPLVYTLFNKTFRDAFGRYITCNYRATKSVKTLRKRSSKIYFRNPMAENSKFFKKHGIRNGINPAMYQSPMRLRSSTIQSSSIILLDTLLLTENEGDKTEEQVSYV

On to `CN(C)c1ccc(-c2cccc([C@@H]3C[C@H](N(C)C)Cc4ccccc43)c2)cc1` (single isomer, unassigned) [(2R,4R)-3k, Cis-4-(4′-(dimethylamino)-[1,1′-biphenyl]-3-yl)-N,N-dimethyl-1,2,3,4-tetrahydro-naphthalen-2-amine], for which the “pKi 5-HT2BR” value in assay [1] is listed as 5.52^(2) 5.68-5.37 7.10 ± 0.21^(5) 7.40-6.82 5.97^(2) 6.08-5.87 5.97^(2) 6.09-5.86.
As for `CN(C)c1ccc(-c2cccc(C3CC(N(C)C)Cc4ccccc43)c2)cc1` [(2R,4S)-2k, Trans-4-(4′-(dimethylamino)-[1,1′-biphenyl]-3-yl)-N,N-dimethyl-1,2,3,4-tetra-hydronaph-thalen-2-amine], the “pKi 5-HT2BR” value in assay [1] is recorded as 5.52^(2) 5.68-5.37 7.10 ± 0.21^(5) 7.40-6.82 5.97^(2) 6.08-5.87 5.97^(2) 6.09-5.86.
For `CN(C)c1ccc(-c2cccc([C@@H]3C[C@H](N(C)C)Cc4ccccc43)c2)cc1` (single isomer, unassigned) [(2S,4S)-3k, Cis-4-(4′-(dimethylamino)-[1,1′-biphenyl]-3-yl)-N,N-dimethyl-1,2,3,4-tetrahydro-naphthalen-2-amine], the “pKi 5-HT2BR” value in assay [1] is recorded as 5.52^(2) 5.68-5.37 7.10 ± 0.21^(5) 7.40-6.82 5.97^(2) 6.08-5.87 5.97^(2) 6.09-5.86.
Turning to `CN(C)C1Cc2ccccc2C(c2cccc(-c3cccc(F)c3)c2)C1` [(2R,4S)-2h, Trans-4-(3′-fluoro-[1,1′-biphenyl]-3-yl)-N,N-dimethyl-1,2,3,4-tetrahydronaphtha-len-2-amine], in assay [2] (setting [6]), the “pKi 5-HT2AR” value was found to be 8.03. Moreover, the Ki in assay [3] (setting [7]) is 49 nM.
`CN(C)[C@@H]1Cc2ccccc2[C@H](c2cccc(-c3cccs3)c2)C1` (single isomer, unassigned) [(2S,4S)-3c, Cis-4-(3-(thiophen-2-yl)phenyl)-N,N-dimethyl-1,2,3,4-tetrahydronaphthalen-2-amine]: the Ki is 224 nM in assay [4], 89.1 nM in assay [5], 151 nM in assay [2] and 437 nM in assay [3] (read-out: pKi H1R (converted)).
With `CN(C)[C@@H]1Cc2ccccc2[C@@H](c2cccc(-c3cccc(F)c3)c2)C1` [(2S,4R)-2h, Trans-4-(3′-fluoro-[1,1′-biphenyl]-3-yl)-N,N-dimethyl-1,2,3,4-tetrahydronaphtha-len-2-amine], the “pKi 5-HT2AR” value in assay [2] (setting [6]) was 9.22. In addition, the “pKi H1R” value in assay [3] (displacement of [^3H]mepyramine, mean of n independent experiments, ± SD where n ≥ 5) was determined as 8.96.
Consider `CN(C)C1Cc2ccccc2C(c2cccc(-c3ccc(Cl)cc3)c2)C1` [(2R,4S)-2j, Trans-4-(4′-chloro-[1,1′-biphenyl]-3-yl)-N,N-dimethyl-1,2,3,4-tetrahydronaphtha-len-2-amine], for which the figures for the Ki in assay [4], in assay [2] (setting [6]) and in assay [3] (setting [7]) were 7.08 nM, 5.37 nM and 14.5 nM, respectively.
In the case of `CN(C)C1Cc2ccccc2C(c2cccc(-c3ccccc3F)c2)C1` (single isomer, unassigned) [(2R,4S)-2g, Trans-4-(2′-fluoro-[1,1′-biphenyl]-3-yl)-N, N-dimethyl-1,2,3,4-tetrahydronaphtha-len-2-amine], the results for the Ki in assay [5] and in assay [2] (setting [6]) were 43.7 nM and 30.9 nM, respectively. Also, the “pKi H1R” value in assay [3] is 6.93^(2) 7.02-6.84 8.75^(4) 9.1-8.62 ND 6.54^(2) 6.67-6.40.
For the compound `CN(C)[C@@H]1Cc2ccccc2[C@H](c2cccc(-c3ccc(Cl)cc3)c2)C1` (single isomer, unassigned) [(2S,4S)-3j, Cis-4-(4′-chloro-[1,1′-biphenyl]-3-yl)-N,N-dimethyl-1,2,3,4-tetrahydronaphthalen-2-amine], the Ki in assay [4] was 97.7 nM; in assay [2] (setting [6]) it was 63.1 nM.
With `CN(C)[C@@H]1Cc2ccccc2[C@@H](c2cccc(-c3ccccc3)c2)C1` (single isomer, unassigned) [(2R,4S)-2f, Trans-4-([1,1′-biphenyl]-3-yl)-N,N-dimethyl-1,2,3,4-tetrahydronaphthalen-2-amine], the figures for the Ki in assay [4] and in assay [5] were 69.2 nM and 112 nM, respectively.
Consider `CN(C)[C@@H]1Cc2ccccc2[C@H](c2cccc(F)c2)C1` (single isomer, unassigned) [(2S,4S)-3b′, Cis-4-(3-fluorophenyl)-N, N-dimethyl-1,2,3,4-tetrahydronaphthalen-2-amine], for which the Ki in assay [4] is 437 nM; in assay [5], 912 nM.
In the case of `CN(C)[C@@H]1Cc2ccccc2[C@@H](c2cccc(-c3ccncc3)c2)C1` (single isomer, unassigned) [(2S,4R)-2e, Trans-4-(3-(pyridin-4-yl)phenyl)-N,N-dimethyl-1,2,3,4-tetrahydronaphthalen-2-amine], the Ki was 42.7 nM in assay [4], 7.41 nM in assay [2] (setting [6]) and 1.38 nM in assay [3] (setting [7]).
Regarding `CN(C)[C@@H]1Cc2ccccc2[C@H](c2cccc(F)c2)C1` (single isomer, unassigned) [(2R,4R)-3b′, Cis-4-(3-fluorophenyl)-N, N-dimethyl-1,2,3,4-tetrahydronaphthalen-2-amine], the Ki in assay [4] is 251 nM; in assay [5] it was 447 nM.
As for `CN(C)[C@@H]1Cc2ccccc2[C@H](c2cccc(-c3ccc(Cl)cc3)c2)C1` (single isomer, unassigned) [(2R,4R)-3j, Cis-4-(4′-chloro-[1,1′-biphenyl]-3-yl)-N,N-dimethyl-1,2,3,4-tetrahydronaphthalen-2-amine], the figures for the Ki in assay [4] and in assay [2] (setting [6]) were 9.33 nM and 1.7 nM, respectively. Also, the “pKi H1R” value in assay [3] is reported as 7.84^(2) 7.89-7.78 8.84^(3) 8.86-8.82 ND 6.40^(3) 6.41-6.40.
The compound `CN(C)[C@@H]1Cc2ccccc2[C@H](c2cccc(Cl)c2)C1` (single isomer, unassigned) [(2R,4R)-3b, Cis-4-(3-chlorophenyl)-N, N-dimethyl-1,2,3,4-tetrahydronaphthalen-2-amine] gave a Ki in assay [5] of 115 nM.
In turn, `CN(C)[C@@H]1Cc2ccccc2[C@H](c2cccc(-c3ccco3)c2)C1` (single isomer, unassigned) [(2R,4R)-3d, Cis-4-(3-(furan-2-yl)phenyl)-N,N-dimethyl-1,2,3,4-tetrahydronaphthalen-2-amine] had a Ki in assay [3] (setting [7]) of 50.1 nM.
`CN(C)[C@@H]1Cc2ccccc2[C@H](c2cccc(Cl)c2)C1` (single isomer, unassigned) [(2S,4S)-3b, Cis-4-(3-chlorophenyl)-N, N-dimethyl-1,2,3,4-tetrahydronaphthalen-2-amine] showed a Ki in assay [5] of 389 nM.
The compound `CN(C)[C@@H]1Cc2ccccc2[C@@H](c2cccc(-c3ccco3)c2)C1` (single isomer, unassigned) [(2S,4R)-2d, Trans-4-(3-(furan-2-yl)phenyl)-N,N-dimethyl-1,2,3,4-tetrahydronaphthalen-2-amine] gave a Ki in assay [3] (setting [7]) of 3.39 nM.
With `CN(C)[C@@H]1Cc2ccccc2[C@H](c2cccc(Br)c2)C1` (single isomer, unassigned) [(2R,4R)-3a, Cis-4-(3-bromophenyl)-N, N-dimethyl-1,2,3,4-tetrahydronaphthalen-2-amine], the Ki in assay [4] is 57.5 nM; in assay [5], 85.1 nM; in assay [2] (setting [6]), 31.6 nM.
For `CN(C)[C@@H]1Cc2ccccc2[C@H](c2cccc(-c3ccccc3)c2)C1` (single isomer, unassigned) [(2R,4R)-3f, Cis-4-([1,1′-biphenyl]-3-yl)-N,N-dimethyl-1,2,3,4-tetrahydronaphthalen-2-amine], the Ki in assay [4] is 26.9 nM; in assay [5] it was 117 nM.
Consider `CN(C)[C@@H]1Cc2ccccc2[C@@H](c2cccc(-c3ccccc3)c2)C1` (single isomer, unassigned) [(2S,4R)-2f, Trans-4-([1,1′-biphenyl]-3-yl)-N,N-dimethyl-1,2,3,4-tetrahydronaphthalen-2-amine], for which the Ki in assay [4] is 3.31 nM; in assay [5] it was 52.5 nM.
Turning to `CN(C)[C@@H]1Cc2ccccc2[C@H](c2cccc(-c3cccc(F)c3)c2)C1` (single isomer, unassigned) [(2S,4S)-3h, Cis-4-(3′-fluoro-[1,1′-biphenyl]-3-yl)-N,N-dimethyl-1,2,3,4-tetrahydronaphthalen-2-amine], the “pKi 5-HT2AR” value in assay [2] (setting [6]) stood at 7.69. Further, the “pKi H1R” value in assay [3] is given as 7.31 ^(2) 7.39-7.23 8.96^(3) 9.11-8.88 6.20^(2) 6.23-6.18 6.30 ± 0.10^(5) 6.42-6.14.
With `CN(C)[C@@H]1Cc2ccccc2[C@H](c2cccc(-c3cccs3)c2)C1` (single isomer, unassigned) [(2R,4R)-3c, Cis-4-(3-(thiophen-2-yl)phenyl)-N,N-dimethyl-1,2,3,4-tetrahydronaphthalen-2-amine], the Ki in assay [4] is 24 nM; in assay [5], 105 nM; in assay [2], 3.55 nM; in assay [3] (read-out: pKi H1R (converted)) it was 234 nM. In addition, the “selectivity for 5-HT2ARs over 5-HT2B and H1Rs” value in assay [2] (one figure for both off-targets) is recorded as 30-60 fold.
Turning to `CN(C)C1Cc2ccccc2C(c2cccc(-c3ccccc3F)c2)C1` (single isomer, unassigned) [(2S,4R)-2g, Trans-4-(2′-fluoro-[1,1′-biphenyl]-3-yl)-N, N-dimethyl-1,2,3,4-tetrahydronaphtha-len-2-amine], the Ki in assay [5] was 81.3 nM; in assay [2] (setting [6]) it was 0.813 nM; in assay [3] (setting [7]) it was 1.78 nM.
On to `CN(C)[C@@H]1Cc2ccccc2[C@@H](c2cccc(-c3ccc(Cl)cc3)c2)C1` [(2S,4R)-2j, Trans-4-(4′-chloro-[1,1′-biphenyl]-3-yl)-N,N-dimethyl-1,2,3,4-tetrahydronaphtha-len-2-amine], for which the Ki in assay [4] is 4.9 nM; in assay [2] (setting [6]) it was 0.288 nM; in assay [3] (setting [7]), 1.45 nM.
